A short description of data set [1]: Thermodynamic solubility in buffer at 24 h (HPLC of supernatant). In kind it is physicochemical. Conditions: for solubility at 24 h: 0.2 m hcl/kcl, as free-base. An excerpt:
The solubility of a compound may be assessed by adding a surplus of the compound to a volume of solvent such that some of the compound is not dissolved, then isolating the non-dissolved compound and measuring the amount. The solubility of a compound may alternatively be assessed by adding a surplus of the compound to a volume of solvent such that some of the compound is not dissolved, and then measure the amount of compound in solution. Measuring the amount of compound in solution may be done using any suitable method, such as HPLC, titration, or spectrometry.
The solubility of AP1189 freebase, tosylate salt and fumarate salt were assessed in buffer solutions. An amount of the compound was suspended in buffer and agitated at ambient temperature for 24 hr, before the supernatant was sampled and analysed for the content of AP1189 by HPLC.

A further data set deals with ERK1/2-phosphorylation. As to conditions: alternative pathways; cited from earlier work.
The test system of data set [2] is MC1R. Conditions: biased dual agonist; cited from earlier work.
Data set [3] relates to cAMP generation (MC1R and MC3R). Conditions: cited from earlier work.
Data set [4] concerns MC1R. Conditions: cited from earlier work.
In data set [5] the test system is MC1R-induced melanogenesis. Conditions: cited from earlier work.
The next data set deals with Ca^2± mobilisation. Conditions: alternative pathways; cited from earlier work.
The nature of data set [6]: Initial polymorphism assessment: solubility of AP1189 freebase in solvent systems (aliquot addition). The class given is physicochemical. As to conditions: ambient, gently heated to ca. 40 °C if solid remained. The procedure: An initial polymorphism assessment was carried out in order to identify any potential alternate forms. The initial polymorphism assessment was carried out as follows: To ca. 7 mg of freebase Pattern 1 from DCM evaporation the appropriate solvent system was added in aliquots of 50 μL and if solid remained the vial was gently heated to ca. 40 °C to aid dissolution. Solvent addition was continued until the material had fully dissolved or 1 mL of the appropriate solvent system had been added (<10 mg/mL). Anti-solvent (t-BME) was added dropwise (with stirring) at ambient. If the solutions were already present as slurries prior to addition of anti-solvent, no anti-solvent was added. The experiments were temperature cycled between ambient temperature and 40 °C in 4 hour cycles for ca. 24 h with agitation. Slurries were isolated by centrifugation and solutions allowed to evaporate at ambient temperature. XRPD analysis was carried out for the solids which were obtained.

The subject of the next data set is MC3R. As to conditions: biased dual agonist; cited from earlier work.

Converted amounts (≈) assume the structure as drawn. Structures can show the parent of a compound that is named as a salt. Some results are limits rather than exact numbers.

For orientation: solubility means the concentration that dissolves in the medium under given conditions.

For `NC(N)=N/N=C/C=C/c1cccn1-c1ccccc1[N+](=O)[O-]` [Tosylate Salt Pattern 1, 2-{3-[1-(2-nitrophenyl)-1H-pyrrol-2-yl]prop-2-en-1-ylidine}hydrazine-1-carboximidamide tosylate], the solubility at 24 h in data set [1] (pH 1.26, 0.2 M HCl/KCl, initial pH 1.22, 24 h pH 1.26, input 31 mM, ambient temperature) is 0.31 mM. The “Solubility at low pH (in words)” value in data set [1] (low pH, e.g. pH 1.2-1.3 or pH 4.5) is given as “low solubility at low pH”.

Turning to `NC(N)=N/N=C/C=C/c1cccn1-c1ccccc1[N+](=O)[O-]` [AP1189, 2-{3-[1-(2-nitrophenyl)-1H-pyrrol-2-yl]prop-2-en-1-ylidine}hydrazine-1-carboximidamide], in the data set on ERK1/2-phosphorylation, the ERK1/2-phosphorylation entry is listed as “appear to induce alternative pathways including ERK1/2-phosphorylation”. In addition, the “agonism at MC1R” value in the data set with MC1R [2] was “biased dual agonist at receptors MC1R and MC3R”. Further, the “canonical cAMP generation” value in [3] is on record as “does not provoke canonical cAMP generation”. In addition, the “binding to MC1R” value with MC1R [4] is “shown to bind the MC1R”. Further, in data set [5], the MC1R-induced melanogenesis result is “no MC1R-induced melanogenesis”. In addition, the “Ca2+ mobilisation” value in the data set on Ca^2± mobilisation was “appear to induce alternative pathways including ERK1/2-phosphorylation and Ca^2 mobilisation”. The solubility in data set [6] (Water) was below 7000 µg/mL; in data set [6] (organic solvent or mixture, 2-Methyl THF), at least 10000 µg/mL; in data set [6] (organic solvent or mixture, 2-Propanol), below 7000 µg/mL; in data set [6] (organic solvent or mixture, 90% 2-Propanol: 10% Water (% v/v) (calculated aw 0.6)), at least 10000 µg/mL; in data set [6] (organic solvent or mixture, 98.5% Ethanol : 1.5% Water (% v/v) (calculated aw 0.2)) it was at least 15000 µg/mL; in data set [6] (organic solvent or mixture, Acetone), at least 49000 µg/mL. For the same compound, the solubility in data set [6] (organic solvent or mixture, Acetonitrile) is at least 27000 µg/mL; in [6] (organic solvent or mixture, Dichloromethane), below 7000 µg/mL; in data set [6] (organic solvent or mixture, Dimethylsulfoxide), at least 136000 µg/mL; in data set [6] (organic solvent or mixture, Ethanol), at least 13000 µg/mL; in data set [6] (organic solvent or mixture, Ethyl Acetate), below 7000 µg/mL; in [6] (organic solvent or mixture, Heptane), below 7000 µg/mL. For the same compound, the solubility in data set [6] (organic solvent or mixture, Methanol) was at least 142000 µg/mL; in data set [6] (organic solvent or mixture, Methylethyl Ketone), at least 17000 µg/mL; in data set [6] (organic solvent or mixture, Methylisobutyl Ketone) it was below 7000 µg/mL; in data set [6] (organic solvent or mixture, Tetrahydrofuran) it was at least 35000 µg/mL; in [6] (organic solvent or mixture, Toluene), below 7000 µg/mL; in [6] (organic solvent or mixture, tert-Butylmethyl ether) it was below 7000 µg/mL. Moreover, the “Solubility at acidic conditions (in words)” value in data set [1] (acidic conditions) is given as “highly soluble at acidic conditions”. In addition, the figures for the “Solubility at pH 1.2 (in words)” value in [1] and in data set [1] (listed as AP1189 free base) were “high solubility at pH 1.2” and “high solubility at pH 1.2 compared to the test compound AP1189 fumarate Pattern 1”, respectively. The “agonism at MC3R” value in the data set on MC3R was “biased dual agonist at receptors MC1R and MC3R”.

On to `NC(N)=N/N=C/C=C/c1cccn1-c1ccccc1[N+](=O)[O-]` [Fumarate Salt Pattern 1], for which, in data set [1] (pH 1.29, 0.2 M HCl/KCl, initial pH 1.35 → 1.18, 24 h pH 1.29, input 38 mM, ambient temperature), the solubility at 24 h was determined as 10.9 mM.

Take `NC(N)=N/N=C/C=C/c1cccn1-c1ccccc1[N+](=O)[O-]` [AP1189 freebase Pattern 1, 2-{3-[1-(2-nitrophenyl)-1H-pyrrol-2-yl]prop-2-en-1-ylidine}hydrazine-1-carboximidamide]: the solubility at 24 h in [1] (pH 1.29, 0.2 M HCl/KCl, initial pH 2.05 → 1.24, 24 h pH 1.29, input 83* mM (estimated), ambient temperature) is above 44.1 mM; in data set [1] (pH 1.54, FaSSGF (Fasted State Simulated Gastric Fluid), initial pH 1.60, 24 h pH 1.54, ambient temperature), 13.9 mM (≈ 4140 µg/mL). Moreover, the “Solubility at pH 4.5 (in words)” value in [1] (pH 4.5, compared to AP1189 fumarate Pattern 1) is “high solubility at pH 4.5 compared to test compound AP1189 fumarate Pattern 1”.

The values above are taken from patent US20260356800A1, “POLYMORPH OF PHENYL PYRROLE HYDRAZINE CARBOXIMIDAMIDE COMPOUND” (SYNACT PHARMA ApS, priority 2022, published 2026).
